# What was measured:
# [1] = system: PMA-induced mouse ear oedema; test: Inhibition of PMA-induced mouse ear oedema in-vivo; design: species or system female mice (CD1 strain); details: epicutaneous, 18 hours before PMA 1.25 μg/ear; killed 4 hours later
# Protocol: INHIBITION OF MOUSE EAR OEDEMA IN-VIVO (i) Steroids are dissolved in acetone and administered epicutaneously to the ventral and dorsal surfaces of the right ear pinna of female mice (CD1 strain, 5 in each group, each weighing about 20 g). 18 Hours later, phorbol myristate acetate (PMA, 1.25 μg/ear) in acetone is applied epicutaneously to the right ear. The mice are killed 4 hours later, and a 5 mm disc is punched out of each ear and weighed. The dose reducing PMA-induced oedema by 50% (ED50) is determined from linear regression.
# [2] = system: TNF-α release from human peripheral blood monocytes; test: Inhibition of tumour necrosis factor (TNF-α) release from human peripheral blood monocytes (lipopolysaccharide challenge); type: cell-based; details: Monocyte, 18 hours incubation with steroid, then 10 ng/ml lipopolysaccharide for 4 hours, read-out: IC50 (steroid concentration reducing TNF-α release by 50%)
# Protocol: INHIBITION OF TUMOUR NECROSIS FACTOR (TNF-α) RELEASE FROM HUMAN PERIPHERAL BLOOD MONOCYTES Monocytes are obtained from blood samples taken from normal human donors. The leukocyte population is washed, applied to a discontinuous metrizamide gradient, and fractionated by centrifugation. The monocyte-enriched interface is aspirated, the cells washed and total and differential counts performed to determine the number of monocytes. Cells are allowed to adhere to 96-well plates for 1 to 2 hours, and thereafter incubated (8×10^5 monocytes/well) with the steroid for 18 hours (37° C. in 5% CO2). Cells are challenged with 10 ng/ml lipopolysaccharide for 4 hours and TNF-αis assayed by use of an enzyme-linked immunosorbent assay. TNF-α quantification is performed with goat anti-human TNF-α being used as the coating antibody, rabbit anti-human TNF-α as the second antibody, and goat anti-rabbit IgG horseradish peroxidase as the detection antibody. The IC50 is the steroid concentration reducing TNF-α release by 50%.
# [3] = system: antigen-induced mouse ear oedema; test: Inhibition of antigen-induced mouse ear oedema in-vivo (ovalbumin sensitised mice); details: topical, 18 hours before intradermal antigen challenge; killed 1 hour later
# Protocol: INHIBITION OF MOUSE EAR OEDEMA IN-VIVO (ii) Ovalbumin sensitised mice are challenged with antigen injected into the right ear intradermally under 4% halothane anaesthesia (4% in oxygen, 4 litres/minute for 2 minutes) 18 hours after topical treatment with the steroids [as above in (i)]. The mice are killed 1 hour later, and a 5 mm disc is punched out of each ear, and weighed. The dose reducing the oedema by 50% (ED50) is determined as above.
# [4] = system: Sephadex-induced lung oedema in rats; test: animal or person; type: in vivo, male rats (Sprague-Dawley strain)
# Protocol: INHIBITION OF RAT LUNG OEDEMA IN-VIVO:
# Test compounds are suspended in 1% carboxymethyl-cellulose/0.2% Tween 80 at double the required strength and sonicated to form a suspension. This is administered intra-tracheally (i.t.) to male rats (Sprague-Dawley strain, 6 in each group, each weighing about 350 g) at 0 hours and 24 hours, with the first dose being co-administered with saline and the second with Sephadex G200 [cross-linked dextran] (10 mg/ml) giving a final Sephadex concentration of 5 mg/ml. I.t. dosing is carried out under halothane anaesthesia (4% in oxygen, at 4 litres/minute for 3 minutes). At 48 hours, the rats are killed, final body weight is recorded, and the lungs and thymus are removed and weighed. The doses reducing the Sephadex-induced oedema and the thymus weight by 30% (ED30) are calculated. Airway selectivity is defined as the ratio of thymus involution (ED30) and inhibition of lung oedema (ED30).
# [5] = system: tyrosine aminotransferase activity, rat liver H4IIE cells; test: Induction of tyrosine aminotransferase activity in rat liver H4IIE cells; type: cell-based; details: overnight incubation, maximum of dexamethasone as reference, method defines ED50 = 50% of the maximum achievable increase, read-out: IC50 (induction of tyrosine aminotransferase activity)
# Protocol: INDUCTION OF TYROSINE AMINOTRANSFERASE ACTIVITY
# Rat liver H4IIE cells are cultured for 4 days until the cells are confluent. The medium is replaced by fresh medium, containing steroid under test (0-100 nM) which is added to triplicate wells. After overnight incubation as above, the medium is removed and the cells are lysed and the extract is equilibrated at 37° C. with α-ketoglutarate and pyridoxal phosphate in phosphate buffer, pH 7.3, in a final volume of 1 ml. Tyrosine aminotransferase activity is initiated by adding tyrosine and incubating at 37° C. for 10 minutes. The reaction is stopped by adding aqueous sodium hydroxide solution (10M). The ultra-violet absorbance of the para-hydroxybenzaldehyde is measured by a plate reader at 340 nm. The maximal absorbance change achieved with the standard (dexamethasone) is used as a reference. The absorbance change for each concentration of steroid under test is calculated as a fraction of the maximal absorption achievable and plotted against steroid concentration. The ED50 is determined as the concentration causing an increase in tyrosine aminotransferase activity of 50% of the maximum achievable. IC50 =0.3 nM
smiles,measurement,setting,value
CCC[C@@H]1O[C@@H]2C[C@H]3[C@@H]4C[C@H](F)C5=CC(=O)CC[C@]5(C)[C@@]4(F)[C@@H](O)C[C@]3(C)[C@]2(SC)O1,Inhibition of PMA-induced mouse ear oedema: ED5O,[1],0.0082 μg/ear
same,IC50,[2],0.25 nM
same,Inhibition of antigen-induced mouse ear oedema: ED50,[3],0.026 μg/ear
same,ED30,"[4]; Rattus norvegicus, inhaled or nasal, i.t. at 0 and 24 hours, rats killed at 48 hours, dose reducing Sephadex-induced oedema by 30%",3 µg/kg
same,Thymus involution: ED30,"[4]; rat, in vivo, 2880 min",2200 µg/kg
same,Airway selectivity (ratio of thymus involution ED30 and inhibition of lung oedema ED30),"[4]; ratio ED30 thymus involution / ED30 lung oedema, i.t., rat",733
same,ED50 (induction of tyrosine aminotransferase activity),[5],0.3 nM

# — patent publication US5801165A, “Antiinflammatory, immunosuppressive and antialleric 16, 17-alkylidioxy-steroids” (Rhone-Poulenc Rorer Limited, priority 1992, dated 1998)
